{
  "source": "PubChem BioAssay AID1963435",
  "about": "(Molecular Pharmacology Branch, DTP, NCI, 2024)",
  "tested_on": "PANC-1 complex spheroid growth, percent test/control",
  "assay": "Anticancer human tumor PANC-1 cell line growth inhibition [Asc];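 also: spheroids exposed to agents for 7 days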;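 as to viability, T/C: percent viability relative to DMSO vehicle wells taken as 100%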",
  "details": "for IC50: curve of first compound; for viability, T/C: stronger effect = lower value",
  "summary_of_the_method": "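Tumor cells were grown as complex spheroids with human endothelial cells (HUVEC) and human mesenchymal stem cells as stroma. Agents were tested alone and in combination, in half-log steps down from the clinical Cmax, or from 10 microM where Cmax was unknown.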",
  "data": [
    {"smiles": "NC(=O)C(=Cn1cnc(-c2cc(C(F)(F)F)cc(C(F)(F)F)c2)n1)c1cncnc1", "note": "+ Cc1c(S(C)(=O)=O)c(-c2cc(F)cc(N3CCN(c4ccc(NS(=O)(=O)c5ccc(NC(CCN6CCC(C(=O)OCCCP(=O)(O)O)CC6)CSc6ccccc6)c(S(=O)(=O)C(F)(F)F)c5)cc4)CC3)c2)c(-c2ccc(Cl)cc2)n1C(C)C", "values": [
      {"measurement": "IC50", "setting": "second compound 0.0316 µM", "value": "> 300", "unit": "nM"},
      {"measurement": "IC50", "setting": "second compound 0.1 µM", "value": "> 300", "unit": "nM"},
      {"measurement": "IC50", "setting": "second compound 0.316 µM", "value": "> 300", "unit": "nM"},
      {"measurement": "IC50", "setting": "second compound 1 µM", "value": "> 300", "unit": "nM"},
      {"measurement": "IC50", "setting": "second compound 3.16 µM", "value": "> 300", "unit": "nM"},
      {"measurement": "IC50", "setting": "second compound 10 µM", "value": "> 300", "unit": "nM"},
      {"measurement": "viability, T/C", "setting": "second compound 0.0316 µM, first compound 0.000949 µM", "value": 103, "unit": "%"},
      {"measurement": "viability, T/C", "setting": "second compound 0.0316 µM, first compound 0.003 µM", "value": 90.5, "unit": "%"},
      {"measurement": "viability, T/C", "setting": "second compound 0.0316 µM, first compound 0.00949 µM", "value": 93.7, "unit": "%"},
      {"measurement": "viability, T/C", "setting": "second compound 0.0316 µM, first compound 0.03 µM", "value": 91, "unit": "%"},
      {"measurement": "viability, T/C", "setting": "second compound 0.0316 µM, first compound 0.0949 µM", "value": 118, "unit": "%"},
      {"measurement": "viability, T/C", "setting": "second compound 0.0316 µM, first compound 0.3 µM", "value": 90.8, "unit": "%"},
      {"measurement": "viability, T/C", "setting": "second compound 0.1 µM, first compound 0.000949 µM", "value": 96.3, "unit": "%"},
      {"measurement": "viability, T/C", "setting": "second compound 0.1 µM, first compound 0.003 µM", "value": 102, "unit": "%"},
      {"measurement": "viability, T/C", "setting": "second compound 0.1 µM, first compound 0.00949 µM", "value": 97.4, "unit": "%"},
      {"measurement": "viability, T/C", "setting": "second compound 0.1 µM, first compound 0.03 µM", "value": 102, "unit": "%"},
      {"measurement": "viability, T/C", "setting": "second compound 0.1 µM, first compound 0.0949 µM", "value": 121, "unit": "%"},
      {"measurement": "viability, T/C", "setting": "second compound 0.1 µM, first compound 0.3 µM", "value": 84.3, "unit": "%"},
      {"measurement": "viability, T/C", "setting": "second compound 0.316 µM, first compound 0.000949 µM", "value": 105, "unit": "%"},
      {"measurement": "viability, T/C", "setting": "second compound 0.316 µM, first compound 0.003 µM", "value": 93.6, "unit": "%"},
      {"measurement": "viability, T/C", "setting": "second compound 0.316 µM, first compound 0.00949 µM", "value": 101, "unit": "%"},
      {"measurement": "viability, T/C", "setting": "second compound 0.316 µM, first compound 0.03 µM", "value": 98.5, "unit": "%"},
      {"measurement": "viability, T/C", "setting": "second compound 0.316 µM, first compound 0.0949 µM", "value": 122, "unit": "%"},
      {"measurement": "viability, T/C", "setting": "second compound 0.316 µM, first compound 0.3 µM", "value": 99.9, "unit": "%"},
      {"measurement": "viability, T/C", "setting": "second compound 1 µM, first compound 0.000949 µM", "value": 105, "unit": "%"},
      {"measurement": "viability, T/C", "setting": "second compound 1 µM, first compound 0.003 µM", "value": 101, "unit": "%"},
      {"measurement": "viability, T/C", "setting": "second compound 1 µM, first compound 0.00949 µM", "value": 97.7, "unit": "%"},
      {"measurement": "viability, T/C", "setting": "second compound 1 µM, first compound 0.03 µM", "value": 94, "unit": "%"},
      {"measurement": "viability, T/C", "setting": "second compound 1 µM, first compound 0.0949 µM", "value": 130, "unit": "%"},
      {"measurement": "viability, T/C", "setting": "second compound 1 µM, first compound 0.3 µM", "value": 84.5, "unit": "%"},
      {"measurement": "viability, T/C", "setting": "second compound 3.16 µM, first compound 0.000949 µM", "value": 108, "unit": "%"},
      {"measurement": "viability, T/C", "setting": "second compound 3.16 µM, first compound 0.003 µM", "value": 94.5, "unit": "%"},
      {"measurement": "viability, T/C", "setting": "second compound 3.16 µM, first compound 0.00949 µM", "value": 98.1, "unit": "%"},
      {"measurement": "viability, T/C", "setting": "second compound 3.16 µM, first compound 0.03 µM", "value": 104, "unit": "%"},
      {"measurement": "viability, T/C", "setting": "second compound 3.16 µM, first compound 0.0949 µM", "value": 120, "unit": "%"},
      {"measurement": "viability, T/C", "setting": "second compound 3.16 µM, first compound 0.3 µM", "value": 79.3, "unit": "%"},
      {"measurement": "viability, T/C", "setting": "second compound 10 µM, first compound 0.000949 µM", "value": 152, "unit": "%"},
      {"measurement": "viability, T/C", "setting": "second compound 10 µM, first compound 0.003 µM", "value": 192, "unit": "%"},
      {"measurement": "viability, T/C", "setting": "second compound 10 µM, first compound 0.00949 µM", "value": 181, "unit": "%"},
      {"measurement": "viability, T/C", "setting": "second compound 10 µM, first compound 0.03 µM", "value": 205, "unit": "%"},
      {"measurement": "viability, T/C", "setting": "second compound 10 µM, first compound 0.0949 µM", "value": 196, "unit": "%"},
      {"measurement": "viability, T/C", "setting": "second compound 10 µM, first compound 0.3 µM", "value": 86.7, "unit": "%"}
    ]}
  ]
}
